# Data: patent publication US20260374773A1, “MULTI-CYCLIC IRAK AND FLT3 INHIBITING COMPOUNDS AND USES THEREOF” (CHILDREN'S HOSPITAL MEDICAL CENTER, priority 2022, published 2026)
# What was measured:
# IRAK4 = biological target: T1, IRAK4 (Homo sapiens, UniProt Q9NWZ3); assay: DiscoverX KINOMEscan active site-directed competition binding, IRAK4; details: no ATP
# T1 sequence (Q9NWZ3 1-460): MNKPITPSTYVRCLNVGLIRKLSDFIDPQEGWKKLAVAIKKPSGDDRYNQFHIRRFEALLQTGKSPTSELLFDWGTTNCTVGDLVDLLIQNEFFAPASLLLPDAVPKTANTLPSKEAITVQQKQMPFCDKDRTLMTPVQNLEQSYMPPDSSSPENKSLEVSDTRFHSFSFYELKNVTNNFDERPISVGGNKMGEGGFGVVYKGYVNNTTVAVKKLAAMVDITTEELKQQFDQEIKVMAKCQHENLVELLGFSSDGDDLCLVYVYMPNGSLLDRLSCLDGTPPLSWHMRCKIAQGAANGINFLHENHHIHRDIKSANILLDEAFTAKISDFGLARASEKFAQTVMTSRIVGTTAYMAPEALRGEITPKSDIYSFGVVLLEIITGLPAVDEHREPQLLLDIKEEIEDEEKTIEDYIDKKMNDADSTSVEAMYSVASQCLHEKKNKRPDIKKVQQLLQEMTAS
# Excerpt: (§1) Kinase binding data were obtained for various exemplary compounds prepared according to Examples 1-8 using the DiscoverX KINOMEscan® active site-directed competition binding site-directed assay protocol described below. […] As a result, the data report thermodynamic interaction affinities (Kd values), rather than IC50 values that are dependent on ATP concentrations. The assay uses a DNA-tagged version of the protein kinase, and an immobilized ligand bound to a solid support. Compounds that directly or indirectly prevent kinase binding to the immobilized ligand reduce the amount of kinase captured on the solid support, which is detected using an ultra-sensitive qPCR method. Affinity constants reported from the assay have been reported to be independent of the immobilized ligand used that is coupled to the solid support (See supplemental information in Fabian, M. A. et. al., (2005) Nat. Biotechnol. 23, 329-336; Wodicka, L. M. et. al., (2010) Chem. Biol. 17, 1241-1249.)
# (§2) Kinase-tagged T7 phage strains were prepared in an E. coli host derived from the BL21 strain. E. coli were grown to log-phase and infected with T7 phage and incubated with shaking at 32 °C until lysis. The lysates were centrifuged and filtered to remove cell debris. The remaining kinases were produced in HEK-293 cells and subsequently tagged with DNA for qPCR detection. Streptavidin-coated magnetic beads were treated with biotinylated small molecule ligands for 30 minutes at room temperature to generate affinity resins for kinase assays. The liganded beads were blocked with excess biotin and washed with blocking buffer (SeaBlock (Pierce), 1% BSA, 0.05% Tween 20, 1 mM DTT) to remove unbound ligand and to reduce non-specific binding. […] Test compounds were prepared as 111x stocks in 100% DMSO. Kds were determined using an 11-point 3-fold compound dilution series with three DMSO control points. All compounds for Kd measurements are distributed by acoustic transfer (non-contact dispensing) in 100% DMSO. The compounds were then diluted directly into the assays such that the final concentration of DMSO was 0.9%. All reactions were performed in polypropylene 384-well plates. Each was a final volume of 0.02 mL. The assay plates were incubated at room temperature with shaking for 1 hour and the affinity beads were washed with wash buffer (1×PBS, 0.05% Tween 20). The beads were then re-suspended in elution buffer (1×PBS, 0.05% Tween 20, 0.5 μM nonbiotinylated affinity ligand) and incubated at room temperature with shaking for 30 minutes. The kinase concentration in the eluates was measured by qPCR. Binding constants (Kds) were calculated with a standard dose-response curve using the Hill equation. The Hill Slope was set to −1. Curves were fitted using a non-linear least square fit with the Levenberg-Marquardt algorithm.
# as §1, with “9-12” for “1-8”
# (§3) Kinase-tagged T7 phage strains were prepared in an E. coli host derived from the BL21 strain. […]
# FLT3 D835Y = biological target: T2, FLT3 D835Y (Homo sapiens, UniProt P36888, D835Y); assay: DiscoverX KINOMEscan active site-directed competition binding, FLT3 D835Y; details: no ATP
# T2 sequence (P36888 27-993 D835Y): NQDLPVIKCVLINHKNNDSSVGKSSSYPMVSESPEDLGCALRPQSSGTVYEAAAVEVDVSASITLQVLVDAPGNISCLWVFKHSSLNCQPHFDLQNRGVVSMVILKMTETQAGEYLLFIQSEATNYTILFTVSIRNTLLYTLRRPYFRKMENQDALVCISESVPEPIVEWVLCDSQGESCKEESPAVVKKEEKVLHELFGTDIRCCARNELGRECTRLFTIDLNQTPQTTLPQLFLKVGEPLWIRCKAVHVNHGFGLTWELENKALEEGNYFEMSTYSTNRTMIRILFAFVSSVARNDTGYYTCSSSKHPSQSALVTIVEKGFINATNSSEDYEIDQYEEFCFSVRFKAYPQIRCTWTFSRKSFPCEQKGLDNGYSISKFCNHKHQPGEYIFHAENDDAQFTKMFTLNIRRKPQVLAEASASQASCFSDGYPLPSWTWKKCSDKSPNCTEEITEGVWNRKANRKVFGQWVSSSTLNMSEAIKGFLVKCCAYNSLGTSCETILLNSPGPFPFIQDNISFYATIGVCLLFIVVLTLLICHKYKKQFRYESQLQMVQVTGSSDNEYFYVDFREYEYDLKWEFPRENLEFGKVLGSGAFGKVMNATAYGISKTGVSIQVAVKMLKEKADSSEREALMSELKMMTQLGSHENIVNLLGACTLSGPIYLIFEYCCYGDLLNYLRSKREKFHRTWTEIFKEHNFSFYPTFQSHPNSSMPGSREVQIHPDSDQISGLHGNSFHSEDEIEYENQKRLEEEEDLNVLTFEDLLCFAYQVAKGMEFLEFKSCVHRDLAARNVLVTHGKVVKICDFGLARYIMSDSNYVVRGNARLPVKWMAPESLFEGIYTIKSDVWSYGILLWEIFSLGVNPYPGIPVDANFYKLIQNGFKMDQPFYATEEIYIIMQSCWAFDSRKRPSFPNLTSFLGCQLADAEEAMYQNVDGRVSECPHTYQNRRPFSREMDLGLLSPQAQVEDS
# Excerpt: as §1, §2
# as §1, with “9-12” for “1-8”
# as §3
Kd (IRAK4; Table 18) [pM],Kd (FLT3 D835Y; Table 18) [pM],Kd (IRAK4; Table 12) [pM],Kd (FLT3 D835Y; Table 12) [pM],Compound
< 170,620,–,–,"COc1cn2ncc(-c3cncc(N[C@H]4CNCC[C@@H]4F)n3)c2nc1C1CC1 [Compound 12a, 6-(5-cyclopropyl-6-methoxypyrazolo[1,5-a]pyrimidin-3-yl)-N-((3S,4S)-4-fluoropiperidin-3-yl)pyrazin-2-amine]"
–,–,< 170,420,"COc1cn2ncc(-c3nc(N[C@H]4CNCC[C@@H]4F)c(C#N)cc3F)c2nc1C1CC1 [Compound 7, 6-(5-cyclopropyl-6-methoxypyrazolo[1,5-a]pyrimidin-3-yl)-5-fluoro-2-(((3S,4S)-4-fluoropiperidin-3-yl)amino)nicotinonitrile]"
200,< 170,–,–,"COc1cn2ncc(-c3nc(N[C@H]4CNCC[C@@H]4F)ncc3F)c2nc1C(C)(C)O [Compound 6a, 2-(3-(5-fluoro-2-(((3S,4S)-4-fluoropiperidin-3-yl)amino)pyrimidin-4-yl)-6-methoxypyrazolo[1,5-a]pyrimidin-5-yl)propan-2-ol]"
–,–,< 170,< 170,"COc1cn2ncc(-c3nc(N[C@H]4CNCC[C@@H]4F)c(F)cc3F)c2nc1C(C)(C)O [Compound 13, 2-(3-(3,5-difluoro-6-(((3S,4S)-4-fluoropiperidin-3-yl)amino)pyridin-2-yl)-6-methoxypyrazolo[1,5-a]pyrimidin-5-yl)propan-2-ol]"
360,790,–,–,"COc1cn2ncc(-c3ccnc(N[C@H]4CNCC[C@@H]4F)n3)c2nc1C1CC1 [Compound 7a, 4-(5-cyclopropyl-6-methoxypyrazolo[1,5-a]pyrimidin-3-yl)-N-((3S,4S)-4-fluoropiperidin-3-yl)pyrimidin-2-amine]"
< 170,340,–,–,"COc1cn2ncc(-c3nc(N[C@H]4CNCC[C@@H]4F)ncc3F)c2nc1C1CC1 [Compound 15a, 4-(5-cyclopropyl-6-methoxypyrazolo[1,5-a]pyrimidin-3-yl)-5-fluoro-N-((3S,4S)-4-fluoropiperidin-3-yl)pyrimidin-2-amine]"
–,–,< 170,210,"COc1cn2ncc(-c3nc(N[C@H]4CNCC[C@@H]4F)c(C#N)cc3F)c2nc1C(C)(C)O [Compound 10, 5-fluoro-2-(((3S,4S)-4-fluoropiperidin-3-yl)amino)-6-(5-(2-hydroxypropan-2-yl)-6-methoxypyrazolo[1,5-a]pyrimidin-3-yl)nicotinonitrile]"
< 170,< 170,–,–,"COc1cn2ncc(-c3nc(N[C@@H]4CCCNC4)ncc3F)c2nc1C1CC1 [Compound 14a, (R)-4-(5-cyclopropyl-6-methoxypyrazolo[1,5-a]pyrimidin-3-yl)-5-fluoro-N-(piperidin-3-yl)pyrimidin-2-amine]"
